Laboratory results as given in patent US20140357512A1, “HISTONE DEACETYLASE (HDAC) BIOMARKERS IN MULTIPLE MYELOMA” (priority 2013, published 2014).

System: human myeloma cell line MM.1S
Test: CNP analysis: acetylated peptides in cytoplasm (C), soluble nuclear extract (N), insoluble nuclear pellet (P) of Compound B treated cells
Format: cell-based
Conditions: for change in quantity of acetylated peptide, C / fold change in quantity of acetylated peptide, C: cytoplasm (C), normalized to total (C+N+P); for C: change in quantity of acetylated peptide normalized to total (C+N+P) / C: fold change in quantity of acetylated peptide normalized to total (C+N+P): cytoplasm fraction; for P: change in quantity of acetylated peptide normalized to total (C+N+P) / P: fold change in quantity of acetylated peptide normalized to total (C+N+P): insoluble nuclear pellet; for N: change in quantity of acetylated peptide normalized to total (C+N+P) / N: fold change in quantity of acetylated peptide normalized to total (C+N+P): soluble nuclear extract
Method: This example describes the CNP analysis that was performed on Compound B treated cells from Example 1.
The SILAC method was performed as described in Example 1.
The harvested “heavy” and “light” labeled cells were initially lysed with 2×NETN buffer (200 mM NaCl, 100 mM Tris-Cl, 2 mM EDTA, 1.0% NP-40, pH 7.2) on ice for 15 min, respectively. The supernatants were saved after 20,000×g centrifugation for 10 minutes at 4° C. After measurement of the protein concentration in “heavy” or “light” labeled supernatants, equal amounts of crude proteins in supernatant were mixed, and the crude proteins were precipitated by adding trifluoroacetic acid (TFA) with 15% final concentration (v/v) (this was called the cytosolic fraction). After washing twice with −20° C. acetone, the proteins pellets were dissolved in 100 mM NH4HCO3 (pH 8.0) for trypsin digestion.
The remaining cell pellets were further lysed with 1×ETN buffer (100 mM NaCl, 50 mM Tris-Cl, 1 mM EDTA, pH 7.2) supplemented with 0.5% Triton X-100 on ice for 15 min, respectively. The resulting lysates were clarified by 20,000×g centrifugation for 10 minutes, and the supernatant was saved as nuclear extracts fractions. After measurement of the protein concentration in “heavy” or “light” labeled supernatant, equal amount of crude proteins in supernatant were mixed, and the crude proteins were precipitated by adding trifluoroacetic acid (TFA) with 15% final concentration (v/v) (this was called the nuclear extracts fraction). After washing twice with −20° C. acetone, the proteins pellets were dissolved in 100 mM NH4HCO3 (pH 8.0) for trypsin digestion.
The final remaining cell pellets were dissolved in 8 M urea to extract the chromatin-binding proteins. After measurement of protein concentration, equal amount of chromatin-binding proteins in urea solution were mixed, and the proteins were precipitated by adding trifluoroacetic acid (TFA) with 15% final concentration (v/v) (this was called the nuclear pellet fraction). After washing twice with −20° C. acetone, the proteins pellets were dissolved in 100 mM NH4HCO3 for trypsin digestion.
After trypsin digestion for the above three fractions, the Kac affinity enrichment followed by MS analysis and data inquiry were separately performed. The combined Kac data formed the total Kac profiling data in the pair of Compound B vs DMSO.
Compound B treated cell lysate was fractionated into three subcellular fractions—cytoplasm (C), soluble nuclear extract (N), and insoluble nuclear pellet (P), as described above. Any peptides identified as HDAC6 specific in Example 1 with this subcellular localization information was extremely helpful for understanding their functions inside cells.
The third, fourth, and fifth columns of Table 2 show data for Compound B. A “+” indicates a 1.3 fold change or greater in the quantity of peptide when normalized to the total (C+N+P=total) for each peptide for each drug treated group of cells. A “−” indicates a 1.29 fold change or less in the quantity of peptide when normalized to the total (C+N+P=total) for each peptide for each drug treated group of cells. “None” indicates unknown.
The sixth, seventh, and eighth columns of Table 2 show data for Compound B. The numbers in these columns represent the fold change in the quantity of peptide when normalized to the total (C+N+P=total) for each peptide for each drug treated group of cells. The numbers are in a log 2 scale so 1 represents a 2× change, 0 represents no change, and None represents unknown.

[1] = peptide AVLIDK(ac)DQSPK (SEQ ID NO: 577), gene HIBCH
[2] = peptide CSK(ac)LPSSTK(ac)SGWPR (SEQ ID NO: 711), gene PHF15
[3] = peptide DFGSFDK(ac)FK (SEQ ID NO: 709), gene SOD2
[4] = peptide INKALDK(ac)TK (SEQ ID NO: 802), gene MYH9
[5] = peptide K(ac)AINK(ac)AQK (SEQ ID NO: 793), gene HIST1H2BM
[6] = peptide KGEDFVK(ac)TLK (SEQ ID NO: 750), gene MDH2
[7] = peptide LENDK(ac)SFR (SEQ ID NO: 678), gene ECI1
[8] = peptide SELTGK(ac)FEK (SEQ ID NO: 778), gene ANXA5

O=C(NO)c1cnc(NC2(c3cccc(F)c3)CCCCC2)nc1 [Compound B, 2-((1-(3-fluorophenyl)cyclohexyl)amino)-N-hydroxypyrimidine-5-carboxamide]
change in quantity of acetylated peptide, C [1]: − (A “−” indicates a 1.29 fold change or less in the quantity of peptide when normalized to the total (C+N+P=total)) | fold change in quantity of acetylated peptide, C [1]: 0.00 log 2 | change in quantity of acetylated peptide, C (peptide FYK(ac)DVLEVGELAK (SEQ ID NO: 596), gene NAA50): − (A “−” indicates a 1.29 fold change or less in the quantity of peptide when normalized to the total (C+N+P=total)) | fold change in quantity of acetylated peptide, C (peptide FYK(ac)[…] (SEQ ID NO: 596), gene NAA50): 0.12 log 2 | fold change in quantity of acetylated peptide, C (peptide NCSSFLIK(ac)R (SEQ ID NO: 558), gene RPL28): 0.05 log 2 | change in quantity of acetylated peptide, C (peptide VTCIDPNPNFEK(ac)FLIK (SEQ ID NO: 671), gene METTL7A): + (A “+” indicates a 1.3 fold change or greater in the quantity of peptide when normalized to the total (C+N+P=total)) | fold change in quantity of acetylated peptide, C (peptide […](ac)FLIK (SEQ ID NO: 671), gene METTL7A): 0.44 log 2 | fold change in quantity of acetylated peptide, C (peptide […](ac)QNK (SEQ ID NO: 650), gene DLD): 0.18 log 2 | C: change in quantity of acetylated peptide normalized to total (C+N+P) [2]: − (A “−” indicates a 1.29 fold change or less in the quantity of peptide when normalized to the total (C+N+P=total)) | C: fold change in quantity of acetylated peptide normalized to total (C+N+P) [2]: 0.11 log 2 scale | P: change in quantity of acetylated peptide normalized to total (C+N+P) [2]: + (A “+” indicates a 1.3 fold change or greater in the quantity of peptide when normalized to the total (C+N+P=total)) | P: fold change in quantity of acetylated peptide normalized to total (C+N+P) [2]: 0.43 log 2 scale | N: change in quantity of acetylated peptide normalized to total (C+N+P) [2]: − (A “−” indicates a 1.29 fold change or less in the quantity of peptide when normalized to the total (C+N+P=total)) | N: fold change in quantity of acetylated peptide normalized to total (C+N+P) [2]: 0.04 log 2 scale | C: change in quantity of acetylated peptide normalized to total (C+N+P) [3]: − (A “−” indicates a 1.29 fold change or less in the quantity of peptide when normalized to the total (C+N+P=total)) | C: fold change in quantity of acetylated peptide normalized to total (C+N+P) [3]: −0.28 log 2 scale | P: change in quantity of acetylated peptide normalized to total (C+N+P) [3]: − (A “−” indicates a 1.29 fold change or less in the quantity of peptide when normalized to the total (C+N+P=total)) | N: change in quantity of acetylated peptide normalized to total (C+N+P) [3]: + (A “+” indicates a 1.3 fold change or greater in the quantity of peptide when normalized to the total (C+N+P=total)) | N: fold change in quantity of acetylated peptide normalized to total (C+N+P) [3]: −0.48 log 2 scale | C: change in quantity of acetylated peptide normalized to total (C+N+P) [4]: − (A “−” indicates a 1.29 fold change or less in the quantity of peptide when normalized to the total (C+N+P=total)) | P: change in quantity of acetylated peptide normalized to total (C+N+P) [4]: − (A “−” indicates a 1.29 fold change or less in the quantity of peptide when normalized to the total (C+N+P=total)) | N: change in quantity of acetylated peptide normalized to total (C+N+P) [4]: + (A “+” indicates a 1.3 fold change or greater in the quantity of peptide when normalized to the total (C+N+P=total)) | N: fold change in quantity of acetylated peptide normalized to total (C+N+P) [4]: 4.75 log 2 scale | C: change in quantity of acetylated peptide normalized to total (C+N+P) [5]: − (A “−” indicates a 1.29 fold change or less in the quantity of peptide when normalized to the total (C+N+P=total)) | P: change in quantity of acetylated peptide normalized to total (C+N+P) [5]: − (A “−” indicates a 1.29 fold change or less in the quantity of peptide when normalized to the total (C+N+P=total)) | P: fold change in quantity of acetylated peptide normalized to total (C+N+P) [5]: 0.27 log 2 scale | N: change in quantity of acetylated peptide normalized to total (C+N+P) [5]: + (A “+” indicates a 1.3 fold change or greater in the quantity of peptide when normalized to the total (C+N+P=total)) | N: fold change in quantity of acetylated peptide normalized to total (C+N+P) [5]: −0.97 log 2 scale | C: change in quantity of acetylated peptide normalized to total (C+N+P) [6]: − (A “−” indicates a 1.29 fold change or less in the quantity of peptide when normalized to the total (C+N+P=total)) | C: fold change in quantity of acetylated peptide normalized to total (C+N+P) [6]: 0.15 log 2 scale | P: change in quantity of acetylated peptide normalized to total (C+N+P) [6]: − (A “−” indicates a 1.29 fold change or less in the quantity of peptide when normalized to the total (C+N+P=total)) | N: change in quantity of acetylated peptide normalized to total (C+N+P) [6]: + (A “+” indicates a 1.3 fold change or greater in the quantity of peptide when normalized to the total (C+N+P=total)) | N: fold change in quantity of acetylated peptide normalized to total (C+N+P) [6]: 0.49 log 2 scale | C: change in quantity of acetylated peptide normalized to total (C+N+P) [7]: − (A “−” indicates a 1.29 fold change or less in the quantity of peptide when normalized to the total (C+N+P=total)) | C: fold change in quantity of acetylated peptide normalized to total (C+N+P) [7]: 0.12 log 2 scale | P: change in quantity of acetylated peptide normalized to total (C+N+P) [7]: − (A “−” indicates a 1.29 fold change or less in the quantity of peptide when normalized to the total (C+N+P=total)) | N: change in quantity of acetylated peptide normalized to total (C+N+P) [7]: + (A “+” indicates a 1.3 fold change or greater in the quantity of peptide when normalized to the total (C+N+P=total)) | N: fold change in quantity of acetylated peptide normalized to total (C+N+P) [7]: −0.38 log 2 scale | C: change in quantity of acetylated peptide normalized to total (C+N+P) [8]: − (A “−” indicates a 1.29 fold change or less in the quantity of peptide when normalized to the total (C+N+P=total)) | C: fold change in quantity of acetylated peptide normalized to total (C+N+P) [8]: 0.31 log 2 scale | P: change in quantity of acetylated peptide normalized to total (C+N+P) [8]: − (A “−” indicates a 1.29 fold change or less in the quantity of peptide when normalized to the total (C+N+P=total)) | N: change in quantity of acetylated peptide normalized to total (C+N+P) [8]: + (A “+” indicates a 1.3 fold change or greater in the quantity of peptide when normalized to the total (C+N+P=total)) | N: fold change in quantity of acetylated peptide normalized to total (C+N+P) [8]: 0.40 log 2 scale
